# Results from patent US9260425B2 (Genetech, Inc., priority 2011, dated 2016).
# Target: Pim-1 (Homo sapiens (Human), UniProt P11309)
# Experiment: Pim kinase binding activity assay (Example 901), PIM-1 enzyme, Caliper microfluidic peptide phosphorylation
# Type: biochemical
# Conditions: 20 pM PIM-1, 10 μM ATP, 1 μM FAM-peptide, 90 minutes at room temperature
# How it was run: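 The readout was microfluidic mobility-shift separation of a FAM-tagged Pim-specific peptide, excited at 488 nm and read at 530 nm, with Ki calculated from percent conversion. Reactions held 20 pM PIM-1, 1 μM peptide and 10 μM ATP in pH 7.2 HEPES/MgCl2/DTT buffer, ran 90 min at room temperature and were stopped with EDTA.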
# Pim-1, sequence (P11309 whole entry): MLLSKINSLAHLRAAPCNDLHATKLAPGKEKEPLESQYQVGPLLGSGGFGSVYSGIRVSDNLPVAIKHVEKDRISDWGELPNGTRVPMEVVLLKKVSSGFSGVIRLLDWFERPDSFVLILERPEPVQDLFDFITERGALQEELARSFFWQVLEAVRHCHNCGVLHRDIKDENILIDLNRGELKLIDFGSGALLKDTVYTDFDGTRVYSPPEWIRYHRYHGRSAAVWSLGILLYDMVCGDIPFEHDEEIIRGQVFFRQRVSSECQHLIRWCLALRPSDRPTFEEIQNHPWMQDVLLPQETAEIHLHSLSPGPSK
row,Ki [pM],Structure (SMILES)
1,86,"Cc1ccc(-c2n[nH]c3cnc(-c4cccnc4)cc23)nc1N1CCC(O)CC1 [Example 288, 1-(3-methyl-6-(5-(pyridin-3-yl)-1H-pyrazolo[3,4-c]pyridin-3-yl)pyridin-2-yl)piperidin-4-ol]"
2,17,"N[C@H]1CCCN(c2nc(-c3n[nH]c4cnc(-c5cccnc5)cc34)ccc2Br)C1 [Example 289, (S)-1-(3-bromo-6-(5-(pyridin-3-yl)-1H-pyrazolo[3,4-c]pyridin-3-yl)pyridin-2-yl)piperidin-3-amine]"
3,82,"N[C@@H]1CCCN(c2nc(-c3n[nH]c4cnc(-c5cccnc5)cc34)ccc2Br)C1 [Example 290, (R)-1-(3-bromo-6-(5-(pyridin-3-yl)-1H-pyrazolo[3,4-c]pyridin-3-yl)pyridin-2-yl)piperidin-3-amine]"
4,261,"O[C@@H]1CCCN(c2nc(-c3n[nH]c4cnc(-c5cccnc5)cc34)ccc2Br)C1 [Example 291, (R)-1-(3-bromo-6-(5-(pyridin-3-yl)-1H-pyrazolo[3,4-c]pyridin-3-yl)pyridin-2-yl)piperidin-3-ol]"
5,181,"OC1CCN(c2nc(-c3n[nH]c4cnc(-c5cccnc5)cc34)ccc2Br)CC1 [Example 292, 1-(3-bromo-6-(5-(pyridin-3-yl)-1H-pyrazolo[3,4-c]pyridin-3-yl)pyridin-2-yl)piperidin-4-ol]"
6,412,"O[C@@H]1CCN(c2nc(-c3n[nH]c4cnc(-c5cccnc5)cc34)ccc2Br)C1 [Example 293, (R)-1-(3-bromo-6-(5-(pyridin-3-yl)-1H-pyrazolo[3,4-c]pyridin-3-yl)pyridin-2-yl)pyrrolidin-3-ol]"
7,168,"Cn1cc(-c2cc3c(-c4cccc(N5CCC(O)CC5)n4)n[nH]c3cn2)cn1 [Example 294, 1-(6-(5-(1-methyl-1H-pyrazol-4-yl)-1H-pyrazolo[3,4-c]pyridin-3-yl)pyridin-2-yl)piperidin-4-ol]"
8,39900,"O=C1N(c2n[nH]c3cnc(-c4cccnc4)cc23)CCC12CCNCC2 [Example 295, 2-(5-(pyridin-3-yl)-1H-pyrazolo[3,4-c]pyridin-3-yl)-2,8-diazaspiro[4.5]decan-1-one]"
9,9740,"O=C1N(CC2CCNCC2)CCN1c1n[nH]c2cnc(-c3cccnc3)cc12 [Example 296, 1-(piperidin-4-ylmethyl)-3-(5-(pyridin-3-yl)-1H-pyrazolo[3,4-c]pyridin-3-yl)imidazolidin-2-one]"
10,34,"Cn1cc(-c2cc3c(-c4cccc(NCC(C)(C)O)n4)n[nH]c3cn2)cn1 [Example 297, 2-methyl-1-(6-(5-(1-methyl-1H-pyrazol-4-yl)-1H-pyrazolo[3,4-c]pyridin-3-yl)pyridin-2-ylamino)propan-2-ol]"
11,14100,"NC(=O)Nc1cc2c(-c3cccc(N4CCC[C@H](N)C4)n3)n[nH]c2cn1 [Example 298, (S)-1-(3-(6-(3-aminopiperidin-1-yl)pyridin-2-yl)-1H-pyrazolo[3,4-c]pyridin-5-yl)urea]"
12,664,"N[C@H]1CCC[C@@H](Oc2cccc(-c3n[nH]c4cnc(-c5cccnc5)cc34)n2)C1 [Example 299, (1S,3R)-3-(6-(5-(pyridin-3-yl)-1H-pyrazolo[3,4-c]pyridin-3-yl)pyridin-2-yloxy)cyclohexanamine]"
13,70,"N[C@@H]1CCCN(c2nccc(-c3n[nH]c4cnc(-c5cccnc5)cc34)n2)C1 [Example 300, (R)-1-(4-(5-(pyridin-3-yl)-1H-pyrazolo[3,4-c]pyridin-3-yl)pyrimidin-2-yl)piperidin-3-amine]"
14,6000,"NC(=O)c1ccnc(-c2n[nH]c3cnc(-c4cccnc4)cc23)c1 [Example 302, 2-(5-(pyridin-3-yl)-1H-pyrazolo[3,4-c]pyridin-3-yl)isonicotinamide]"
15,4110,"O=C1N(CC2CCNC2)CCN1c1n[nH]c2cnc(-c3cccnc3)cc12 (centres unmarked) [Example 303, 1-(5-(pyridin-3-yl)-1H-pyrazolo[3,4-c]pyridin-3-yl)-3-(pyrrolidin-3-ylmethyl)imidazolidin-2-one]"
16,91,"Cc1ccc(-c2n[nH]c3cnc(-c4cccnc4)cc23)nc1N1CC[C@H](O)C1 [Example 305, (S)-1-(3-methyl-6-(5-(pyridin-3-yl)-1H-pyrazolo[3,4-c]pyridin-3-yl)pyridin-2-yl)pyrrolidin-3-ol]"
17,220,"Cc1ccc(-c2n[nH]c3cnc(-c4cccnc4)cc23)nc1N1CC[C@@H](O)C1 [Example 306, (R)-1-(3-methyl-6-(5-(pyridin-3-yl)-1H-pyrazolo[3,4-c]pyridin-3-yl)pyridin-2-yl)pyrrolidin-3-ol]"
18,10,"C=C(C)c1ccc(-c2n[nH]c3cnc(-c4cccnc4)cc23)nc1N1CCC[C@H](N)C1 [Example 308, (S)-1-(3-(prop-1-en-2-yl)-6-(5-(pyridin-3-yl)-1H-pyrazolo[3,4-c]pyridin-3-yl)pyridin-2-yl)piperidin-3-amine]"
19,112,"Cc1ccc(-c2n[nH]c3cnc(-c4cccnc4)cc23)nc1N1CCC[C@@H](O)C1 [Example 309, (R)-1-(3-methyl-6-(5-(pyridin-3-yl)-1H-pyrazolo[3,4-c]pyridin-3-yl)pyridin-2-yl)piperidin-3-ol]"

row,Ki [pM],Structure (SMILES)
1,137,"Cc1ccc(-c2n[nH]c3cnc(-c4cccnc4)cc23)nc1N1CCC[C@@H](N)C1 [Example 310, (R)-1-(3-methyl-6-(5-(pyridin-3-yl)-1H-pyrazolo[3,4-c]pyridin-3-yl)pyridin-2-yl)piperidin-3-amine]"
2,29,"N[C@H]1CCCN(c2nc(-c3n[nH]c4cnc(-c5cccnc5)cc34)ccc2Br)CC1 [Example 312, (S)-1-(3-bromo-6-(5-(pyridin-3-yl)-1H-pyrazolo[3,4-c]pyridin-3-yl)pyridin-2-yl)azepan-4-amine]"
3,28,"N[C@@H]1CCCN(c2nc(-c3n[nH]c4cnc(-c5cccnc5)cc34)ccc2Br)CC1 [Example 313, (R)-1-(3-bromo-6-(5-(pyridin-3-yl)-1H-pyrazolo[3,4-c]pyridin-3-yl)pyridin-2-yl)azepan-4-amine]"
4,8.06,"Cc1ccc(-c2n[nH]c3cnc(-c4cccnc4)cc23)nc1N1CCC[C@H](N)C1 [Example 315, (S)-1-(3-methyl-6-(5-(pyridin-3-yl)-1H-pyrazolo[3,4-c]pyridin-3-yl)pyridin-2-yl)piperidin-3-amine]"
5,59,"Cc1ccc(-c2n[nH]c3cnc(-c4cccnc4)cc23)nc1N1CC[C@H](N)C1 [Example 317, (S)-1-(3-methyl-6-(5-(pyridin-3-yl)-1H-pyrazolo[3,4-c]pyridin-3-yl)pyridin-2-yl)pyrrolidin-3-amine]"
6,59,"O[C@H]1CCN(c2nc(-c3n[nH]c4cnc(-c5cccnc5)cc34)ccc2Br)C1 [Example 318, (S)-1-(3-bromo-6-(5-(pyridin-3-yl)-1H-pyrazolo[3,4-c]pyridin-3-yl)pyridin-2-yl)pyrrolidin-3-ol]"
7,3860,"c1cncc(-c2cc3c(N4CCC(N5CCNCC5)C4)n[nH]c3cn2)c1 (centres unmarked) [Example 320, 3-(3-(piperazin-1-yl)pyrrolidin-1-yl)-5-(pyridin-3-yl)-1H-pyrazolo[3,4-c]pyridine]"
8,66.2,"N[C@H]1C[C@@H](F)CN(c2cccc(-c3n[nH]c4cnc(-c5cccnc5)cc34)n2)C1 [Example 321, (3S,5R)-5-fluoro-1-(6-(5-(pyridin-3-yl)-1H-pyrazolo[3,4-c]pyridin-3-yl)pyridin-2-yl)piperidin-3-amine]"
9,322,"O=C1CN(c2cccc(-c3n[nH]c4cnc(-c5cccnc5)cc34)n2)CCCN1 [Example 322, 4-(6-(5-(pyridin-3-yl)-1H-pyrazolo[3,4-c]pyridin-3-yl)pyridin-2-yl)-1,4-diazepan-2-one]"
10,33000,"c1ccc(-c2n[nH]c3cnc(-c4cncs4)cc23)cc1 [Example 323, 5-(3-phenyl-1H-pyrazolo[3,4-c]pyridin-5-yl)thiazole]"
11,296,"NCC1CCCCN1c1cccc(-c2n[nH]c3cnc(-c4cccnc4)cc23)n1 (centres unmarked) [Example 324, (1-(6-(5-(pyridin-3-yl)-1H-pyrazolo[3,4-c]pyridin-3-yl)pyridin-2-yl)piperidin-2-yl)methanamine]"
12,106000,"NC1CCN(C(=O)C2CCN(c3n[nH]c4cnc(-c5cccnc5)cc34)C2=O)CC1 (centres unmarked) [Example 325, 3-(4-aminopiperidine-1-carbonyl)-1-(5-(pyridin-3-yl)-1H-pyrazolo[3,4-c]pyridin-3-yl)pyrrolidin-2-one]"
13,17700,"NCCNC(=O)c1cccc(-c2n[nH]c3cnc(-c4cccnc4)cc23)n1 [Example 326, N-(2-aminoethyl)-6-(5-(pyridin-3-yl)-1H-pyrazolo[3,4-c]pyridin-3-yl)picolinamide]"
14,46,"CC(C)c1ccc(-c2n[nH]c3cnc(-c4cccnc4)cc23)nc1N1CCC[C@H](N)C1 [Example 328, (S)-1-(3-isopropyl-6-(5-(pyridin-3-yl)-1H-pyrazolo[3,4-c]pyridin-3-yl)pyridin-2-yl)piperidin-3-amine]"
15,16500,"O=C(NC1CNC1)c1cccc(-c2n[nH]c3cnc(-c4cccnc4)cc23)n1 [Example 329, N-(azetidin-3-yl)-6-(5-(pyridin-3-yl)-1H-pyrazolo[3,4-c]pyridin-3-yl)picolinamide]"
16,660000,"CN1CCN(c2cc3c(-c4ccccc4)n[nH]c3cn2)CC1=O [Example 330, 1-methyl-4-(3-phenyl-1H-pyrazolo[3,4-c]pyridin-5-yl)piperazin-2-one]"
17,721000,"CN1CCN(c2cc3c(-c4cnn(C)c4)n[nH]c3cn2)CC1=O [Example 331, 1-methyl-4-(3-(1-methyl-1H-pyrazol-4-yl)-1H-pyrazolo[3,4-c]pyridin-5-yl)piperazin-2-one]"
18,7710,"Cn1cc(-c2cc3c(-c4ccccn4)n[nH]c3cn2)cn1 [Example 332, 5-(1-methyl-1H-pyrazol-4-yl)-3-(pyridin-2-yl)-1H-pyrazolo[3,4-c]pyridine]"

row,Structure (SMILES),Ki [pM]
1,"CCc1ccc(-c2n[nH]c3cnc(-c4cccnc4)cc23)nc1N1CCC[C@H](N)C1 [Example 327, (S)-1-(3-ethyl-6-(5-(pyridin-3-yl)-1H-pyrazolo[3,4-c]pyridin-3-yl)pyridin-2-yl)piperidin-3-amine]",35
